The values below are quoted from earlier work in patent US7262212B2, “2,3-dihydro-6-nitroimidazo[2,1-b]oxazoles” (Otsuka Pharmaceutical Co., Ltd., priority 2002, dated 2007).

In this series the test system is multi-drug-resistant Mycobacterium tuberculosis. To be noted: multi-drug-resistant strain; cited from earlier work.

As to `CCC1Cn2cc([N+](=O)[O-])nc2O1` (stereo not shown) [CGI-17341], the bactericidal action result was “has a bactericidal action”.
